Experimental data as given in patent US10202369B2, “1,3-thiazol-2-yl substituted benzamides” (BAYER AKTIENGESELLSCHAFT, priority 2014, dated 2019).

Tests used:
[1] = In vitro metabolic stability in liver microsomes (calculated Fmax); assay type: in vitro ADME, human; settings: 1 μM, calculated maximal oral bioavailability
Description: In Vitro Metabolic Stability Assays Determination of in vitro Metabolic Stability in Microsomes (Including Calculation of Hepatic in vivo Blood Clearance (CL) and of Maximal Oral Bioavailability (Fmax))
The metabolic assay was started shortly afterwards by adding the test compound to the incubation at a final volume of 1 mL. Organic solvent in the incubations was limited to ≤0.01% dimethylsulfoxide (DMSO) and ≤1% acetonitrile. […] Samples were frozen at −20° C. overnight, subsequently centrifuged for 15 minutes at 3000 rpm and the supernatant was analyzed with an Agilent 1200 HPLC-system with LCMS/MS detection.
The half-life of a test compound was determined from the concentration-time plot. From the half-life (kel: slope of concentration-time plot; half-life=In2/kel) the intrinsic clearances were calculated. Together with the additional parameters liver blood flow, specific liver weight and microsomal protein content the hepatic in vivo blood clearance (CL) and the maximal oral bioavailability (Fmax) were calculated for the different species.
(§1) Metabolic instability is often the main clearance mechanism of xenobiotica leading to a high CL and low bioavailability which may eventually result in a short half-life and a low exposure after oral administration. Thus, reducing the susceptibility of metabolic degradation usually leads to a more favourable pharmacokinetic profile. When using liver microsomes as incubation matrix main phase I metabolic reactions, typically oxidoreductive reactions by cytochrome P450 enzymes and flavin mono-oxygenases (FMO) and hydrolytic reactions by esterases/amidases/epoxidhydrolases, are described. When the incubation of the test compound is performed in a hepatocyte matrix all potential hepatic metabolic processes (phase I and phase II) are covered.

rat hepatocytes = assay: In vitro metabolic stability in rat hepatocytes (calculated Fmax); assay type: in vitro ADME, Han Wistar rats; settings: 1 μM, calculated maximal oral bioavailability
Description: Determination of in Vitro Metabolic Stability in Rat Hepatocytes (Including Calculation of Hepatic in Vivo Blood Clearance (CL))
Hepatocytes from Han Wistar rats were isolated via a 2-step perfusion method. After perfusion, the liver was carefully removed from the rat: the liver capsule was opened and the hepatocytes were gently shaken out into a Petri dish with ice-cold Williams' medium E (WME). The resulting cell suspension was filtered through sterile gaze in 50 mL falcon tubes and centrifuged at 50×g for 3 min at room temperature. The cell pellet was resuspended in 30 mL WME and centrifuged through a Percoll® gradient for 2 times at 100×g. The hepatocytes were washed again with WME and resuspended in medium containing 5% FCS. Cell viability was determined by trypan blue exclusion. […] The test compound was added to a final concentration of 1 μM. […] Samples were frozen at −20° C. overnight, subsequently centrifuged for 15 minutes at 3000 rpm and the supernatant was analyzed with an Agilent 1200 HPLC-system with LCMS/MS detection.
The half-life of a test compound was determined from the concentration-time plot. From the half-life (kel: slope of concentration-time plot; half-life=In2/kel) the intrinsic clearances were calculated. Together with the additional parameters liver blood flow, amount of liver cells in vivo and in vitro.
as §1

human P2X3 receptor = human P2X3 receptor (Homo sapiens (Human), UniProt P56373); assay: Intracellular calcium measurement (FLIPR, Fluo-4) of antagonist activity at human P2X3 receptor; assay type: cell-based; settings: human P2X3, FLIPR Fluo-4 calcium, agonist α,β-Me-ATP at EC80; read-out: hP2X3 IC50
Description: (§2) Intracellular Calcium Measurement to Assess Antagonist Activity at Human P2X3 and Human P2X2/3 Receptors
(§3) A fluorescent imaging plate reader (FLEX/FLIPR station; Molecular Devices) was used to monitor intracellular calcium levels using the calcium-chelating dye Fluo-4 (Molecular Probes). […] Cells expressing purinergic receptors P2X3 (human) or P2X2/3 (human) were plated at a density of 15,000 cells/well in collagen-coated 384-well plates approximately 20 hours before beginning the assay. […] The test compound was added in a volume of 5 μl and allowed to incubate for 30 min at 37° C. The final assay DMSO concentration is 1%.
(§4) The agonist, α,β-Me-ATP, was added in a volume of 20 μl at a concentration representing the EC80 value. The fluorescence was measured for an interval of 90 sec at 2 sec intervals and analyzed based on the increase in peak relative fluorescence units (RFU) compared to the basal fluorescence. Peak fluorescence was used to determine the response to agonist obtained at each concentration of test compound by the following equation: % Response=100*(RFU(test compound)−RFU(control))/(RFU(DMSO)−RFU(control))
(§5) The Examples were tested in triplicates per plate and mean values were plotted in Excel XLFit to determine IC5o values at the human P2X3 and human P2X2/3 receptors, percentage of maximal inhibition and the Hill coefficients.

human P2X2/3 receptor = human P2X2/3 receptor (Homo sapiens (Human), UniProt P56373+Q9UBL9); assay: Intracellular calcium measurement (FLIPR, Fluo-4) of antagonist activity at human P2X2/3 receptor; assay type: cell-based; settings: human P2X2/3, FLIPR Fluo-4 calcium, agonist α,β-Me-ATP at EC80; read-out: hP2X2/3 IC50
Description: as §2, §3, §4, §5

[2] = clinical PhII trials; attributed to blockade of P2X2/3 channels; cited from earlier work
vaginal hyperalgesia = assay: Rat dyspareunia model (visceromotor response to vaginal distension); assay type: in vivo, Sprague Dawley rats; settings: 15 mg/kg oral b.i.d. during 2 weeks
Description: The visceromotor response (VMR) to vaginal distension was used in conscious animals as an objective measure of vaginal sensitivity. Briefly, animals in estrus phase were surgically implanted with biopsies of left uterine horn (3×3 mm) around alternate cascade mesenteric arteries that supply the small intestine (4 pieces) and on the wall of the distal colon (2 pieces). To measure VMR response, 2 Teflon-coated wire electrodes were sutured in the external oblique abdominal muscle, and tunneled subcutaneously to be exteriorized at the base of the neck for future access. On the day of VMR assessment, a lubricated small balloon (1 cm length) was inserted into the mid-vaginal canal. […] The electrodes were connected to an amplifier (Animal Bio Amp, ADlnstruments), and the abdominal electromyographic signal was recorded using a data acquisition system (PowerLab, ADlnstruments) for off-line analysis using LabChart version 7. The number of abdominal muscle contractions was counted manually for each 0.1 ml distension step, as an index of vaginal pain. […] All data were expressed as mean±standard deviation (s.d.), for the number (n) of measured rats per group. […] Planned comparison of means (matched-volume versus vehicle) was performed using a Bonferroni post hoc test, provided that a main effect was detected. […]

human P2X2/3 receptor, sequence (P56373 whole entry): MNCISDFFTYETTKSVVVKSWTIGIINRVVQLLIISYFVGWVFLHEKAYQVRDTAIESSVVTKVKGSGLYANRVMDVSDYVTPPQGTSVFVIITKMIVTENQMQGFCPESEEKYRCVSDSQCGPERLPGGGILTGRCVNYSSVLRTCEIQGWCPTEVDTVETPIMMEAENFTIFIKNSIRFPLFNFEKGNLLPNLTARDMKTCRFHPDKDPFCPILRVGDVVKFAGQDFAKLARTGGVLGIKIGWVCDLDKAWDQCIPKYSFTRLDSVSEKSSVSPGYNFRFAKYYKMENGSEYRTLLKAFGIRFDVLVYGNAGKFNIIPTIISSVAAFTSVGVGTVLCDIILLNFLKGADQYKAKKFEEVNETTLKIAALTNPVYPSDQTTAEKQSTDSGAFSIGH
human P2X2/3 receptor, sequence (Q9UBL9 whole entry): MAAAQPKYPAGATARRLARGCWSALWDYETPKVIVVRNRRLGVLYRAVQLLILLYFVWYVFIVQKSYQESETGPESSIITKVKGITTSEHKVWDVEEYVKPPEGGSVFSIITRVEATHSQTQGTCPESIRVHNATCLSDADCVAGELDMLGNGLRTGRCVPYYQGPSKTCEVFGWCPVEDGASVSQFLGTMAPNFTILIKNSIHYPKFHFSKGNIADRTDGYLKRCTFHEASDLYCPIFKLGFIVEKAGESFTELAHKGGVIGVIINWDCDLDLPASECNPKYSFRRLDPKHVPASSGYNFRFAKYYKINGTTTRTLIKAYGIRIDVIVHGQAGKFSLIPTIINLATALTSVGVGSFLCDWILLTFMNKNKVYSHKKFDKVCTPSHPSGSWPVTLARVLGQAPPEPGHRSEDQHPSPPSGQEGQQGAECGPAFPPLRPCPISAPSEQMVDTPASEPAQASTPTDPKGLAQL
human P2X3 receptor, sequence (P56373 whole entry): as the sequence (P56373 whole entry) above

Human liver microsome Fmax [1] | Rat hepatocyte Fmax (rat hepatocytes) | Compound | other results
90% | 64% | Cc1cnc(-c2cc(OC(C)C(C)O)cc(C(=O)N[C@H](C)c3cnc(C(F)(F)F)nc3)c2)s1 (single isomer, unassigned) [Example 340] | –
74% | 51% | CCc1cnc(-c2cc(OC[C@H]3CN(C)CCO3)cc(C(=O)N[C@H](C)c3ccc(C(F)(F)F)nn3)c2)s1 [Example 419, 3-(5-ethyl-1,3-thiazol-2-yl)-5-{[(2R)-4-methyl-morpholin-2-yl]methoxy}-N-{(1R)-1-[6-(trifluoromethyl)pyridazin-3-yl]ethyl} benzamide] | –
100% | 53% | Cc1cnc(-c2cc(OC(C)C(C)O)cc(C(=O)N[C@H](C)c3cnc(C(F)(F)F)nc3)c2)s1 (single isomer, unassigned) [Example 163] | –
74% | 43% | Cc1cnc(-c2cc(OC(C)C(C)O)cc(C(=O)N[C@H](C)c3ccc(C(F)(F)F)nn3)c2)s1 (single isomer, unassigned) [Example 183] | –
– | – | CCc1cnc(-c2cc(OC[C@H]3CCCO3)cc(C(=O)N[C@H](C)c3cnc(C)cn3)c2)s1 [Example 277, 3-(5-ethyl-1,3-thiazol-2-yl)-N-[(1R)-1-(5-methypyrazin-2-yl)ethyl]-5-[(3S)-tetrahydrofuran-3-ylmethoxy]benzamide] | IC50 (human P2X3 receptor): 6 nM; IC50 (human P2X2/3 receptor): 96 nM
94% | 52% | Cc1cnc(-c2cc(OC(C)C(C)O)cc(C(=O)N[C@H](C)c3cnc(C(F)(F)F)nc3)c2)s1 (single isomer, unassigned) [Example 339] | –
– | – | COc1cc(C(C)C)c(Oc2cnc(N)nc2N)cc1S(N)(=O)=O [AF-219] | taste disturbances in treated subjects [2]: taste disturbances
57% | 52% | Cc1cnc(-c2cc(O[C@@H]3CCOC3)cc(C(=O)N[C@H](C)c3cnc(C(F)(F)F)nc3)c2)s1 [Example 11, 3-(5-Methyl-1,3-thiazol-2-yl)-5-[(3R)-tetrahydrofuran-3-yloxy]-N-{(1R)-1-[2-(trifluoromethyl)pyrimidin-5-yl]ethyl}benzamide] | Vaginal hyperalgesia compared to vehicle-treated animals (vaginal hyperalgesia): decreased vaginal hyperalgesia
67% | 56% | Cc1cnc(-c2cc(O[C@H]3CCOC3)cc(C(=O)N[C@H](C)c3cnc(C(F)(F)F)nc3)c2)s1 [Example 26, 3-(5-methyl-1,3-thiazol-2-yl)-5-[(3S)-tetrahydrofuran-3-yloxy]-N-{(1R)-1-[2-(trifluoromethyl)pyrimidin-5-yl]ethyl}benzamide] | –
